Source: patent US20250297135A1, “CERIA AND HYDROXAMIC ACID CMP COMPOSITION” (ENTEGRIS, INC., priority 2024, published 2025)
Like-named read-outs stand apart in the source and are kept apart here.

How the values were obtained:
[1] = pH 5.5
Experimental: (§1) To measure the aqueous solubility, a supersaturated solution of each hydroxamic acid compound was prepared in deionized water. The pH was adjusted to 5.5 using nitric acid and the supersaturated solution was stirred overnight. Excess solids were removed via filtration and the hydroxamic acid compound in solution was quantified using ^1H NMR with a t-BuOH standard.

[2] = Aqueous solubility from supersaturated solution, 1H NMR quantification; conditions: deionized water, pH adjusted to 5.5 using nitric acid, stirred overnight, filtered
Experimental: as §1

Row | Aqueous Solubility [1] [%] | Aqueous Solubility [2] [%] | Compound
1 | 1.0 |  | O=C(NO)c1ccc(F)cc1 [4FBHA, 4-Fluorobenzohydroxamic acid]
2 |  | 0.5 | Cc1ccccc1C(=O)NO [4MeBHA, methylbenzo hydroxamic acid]
3 | 0.5 |  | COc1ccc(CCCCC(=O)NO)cc1 [4pAnisBuHA, 4-(p-anisyl) butyrohydroxamic acid]
